pIC50: −log10 of the molar value.
Target: T1, C5AR1 (Homo sapiens, UniProt P21730)
T1 construct: host or cells: CHO-K1
T1 sequence (P21730 1-350): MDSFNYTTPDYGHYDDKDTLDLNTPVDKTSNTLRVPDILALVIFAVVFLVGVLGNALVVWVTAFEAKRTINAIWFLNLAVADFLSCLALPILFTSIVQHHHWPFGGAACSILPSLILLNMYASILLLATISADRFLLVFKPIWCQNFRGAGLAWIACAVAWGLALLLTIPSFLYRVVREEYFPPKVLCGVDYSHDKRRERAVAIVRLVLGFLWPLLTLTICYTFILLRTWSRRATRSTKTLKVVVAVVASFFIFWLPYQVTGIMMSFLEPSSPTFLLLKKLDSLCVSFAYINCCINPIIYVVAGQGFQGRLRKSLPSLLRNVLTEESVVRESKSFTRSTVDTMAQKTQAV
Assay: hC5a DISCO IC50 assay (PathHunter beta-arrestin, antagonist mode)
Format: cell-based
Conditions: CHO-K1 C5AR1 beta-arrestin cell line; antagonist vs 1-10 nM C5a agonist; geometric mean values; read-out: C5aR IC50
How it was run: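 Antagonist added first, then 1-10 nM C5a agonist; cells incubated 1.5 h at 37 °C. Beta-arrestin signal developed with PathHunter detection reagent, 45 min at RT. IC50 in nmol/l from serial antagonist dilutions, reported as geometric mean of several measurements.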

Row | Structure (SMILES) | pIC50
1 | COc1cccc2c1n(Cc1ccccc1C(F)(F)F)c(=O)n2C1CCN(c2ccccc2)CC1 [Example 4, 4-Methoxy-1-(1-phenyl-piperidin-4-yl)-3-(2-trifluoromethyl-benzyl)-1,3-dihydro-benzoimidazol-2-one] | 6.88
2 | COc1cccc2c1n(Cc1cnccc1C(F)(F)F)c(=O)n2C1CCN(c2c(F)cccc2F)CC1 [Example 59, 1-[1-(2,6-Difluoro-phenyl)-piperidin-4-yl]-4-methoxy-3-(4-trifluoromethyl-pyridin-3-ylmethyl)-1,3-dihydro-benzoimidazol-2-one] | 7.31
3 | COc1cccc2c1n(Cc1ccccc1C(F)(F)F)c(=O)n2C1CCN(c2c(C=O)c(C3CC3)nn2C)CC1 [Example 14, 3-Cyclopropyl-5-{4-[4-methoxy-2-oxo-3-(2-trifluoromethyl-benzyl)-2,3-dihydro-benzoimidazol-1-yl]-piperidin-1-yl}-1-methyl-1H-pyrazole-4-carbaldehyde] | 6.67
4 | COc1cccc2c1n(Cc1ccccc1C(F)(F)F)c(=O)n2[C@@H]1CCN(c2c(F)cccc2CN2CCC(OC)C2)C1 (stereo partly drawn) [Example 138, 1-{(R)-1-[2-Fluoro-6-(3-methoxy-pyrrolidin-1-ylmethyl)-phenyl]-pyrrolidin-3-yl}-4-methoxy-3-(2-trifluoromethyl-benzyl)-1,3-dihydro-benzoimidazol-2-one] | 6.81
5 | COc1nccc2c1n(Cc1ccccc1C(F)(F)F)c(=O)n2[C@@H]1CCN(c2c(F)cccc2F)C1 [Example 42, 1-[(R)-1-(2,6-Difluoro-phenyl)-pyrrolidin-3-yl]-4-methoxy-3-(2-trifluoromethyl-benzyl)-1,3-dihydro-imidazo[4,5-c]pyridin-2-one] | 7.12
6 | COc1cccc2c1n(Cc1ccccc1C(F)(F)F)c(=O)n2[C@@H]1CCN(c2c(F)cccc2CN2CCNCC2)C1 [Example 135, 1-[(R)-1-(2-Fluoro-6-piperazin-1-ylmethyl-phenyl)-pyrrolidin-3-yl]-4-methoxy-3-(2-trifluoromethyl-benzyl)-1,3-dihydro-benzoimidazol-2-one] | 5.24
7 | COc1cccc2c1n(Cc1ncccc1C(F)(F)F)c(=O)n2C1CCN(c2c(C)cccc2F)CC1 [Example 216, 1-[1-(2-Fluoro-6-methyl-phenyl)-piperidin-4-yl]-4-methoxy-3-(3-trifluoromethyl-pyridin-2-ylmethyl)-1,3-dihydro-benzoimidazol-2-one] | 7.92
8 | COc1cccc2c1n(Cc1cncnc1C(F)(F)F)c(=O)n2[C@@H]1CCN(c2c(F)cccc2C#N)C1 [Example 153, 3-Fluoro-2-{(R)-3-[4-methoxy-2-oxo-3-(4-trifluoromethyl-pyrimidin-5-ylmethyl)-2,3-dihydro-benzoimidazol-1-yl]-pyrrolidin-1-yl}-benzonitrile] | 6.67
9 | COc1cccc2c1n([C@@H](C)c1ccccc1C(F)(F)F)c(=O)n2C1CCN(c2c(C)cccc2F)C1 (stereo partly drawn) [Example 219, 1-[1-(2-Fluoro-6-methyl-phenyl)-pyrrolidin-3-yl]-4-methoxy-3-[(S)-1-(2-trifluoromethyl-phenyl)-ethyl]-1,3-dihydro-benzoimidazol-2-one] | 7.47
10 | COc1cccc2c1n(Cc1ccccc1C1CC1)c(=O)n2C1CCN(c2c(C)cccc2F)CC1 [Example 223, 3-(2-Cyclopropyl-benzyl)-1-[1-(2-fluoro-6-methyl-phenyl)-piperidin-4-yl]-4-methoxy-1,3-dihydro-benzoimidazol-2-one] | 6.89
11 | COc1cccc2c1n(Cc1ccccc1C(F)(F)F)c(=O)n2[C@@H]1CCN(c2c(F)cccc2[N+](=O)[O-])C1 [Example 154, 1-[(R)-1-(2-Fluoro-6-nitro-phenyl)-pyrrolidin-3-yl]-4-methoxy-3-(2-trifluoromethyl-benzyl)-1,3-dihydro-benzoimidazol-2-one] | 7.64
12 | COc1cccc2c1n(Cc1ccccc1C(F)(F)F)c(=O)n2[C@H]1CN(c2c(C)cccc2F)C[C@H]1C (relative stereo) [Example 200, 1-[(3R*,4R*)-1-(2-Fluoro-6-methyl-phenyl)-4-methyl-pyrrolidin-3-yl]-4-methoxy-3-(2-trifluoromethyl-benzyl)-1,3-dihydro-benzoimidazol-2-one] | 7.72
13 | Cc1cccc(F)c1N1CC[C@@H](n2c(=O)n(Cc3ccccc3C(F)(F)F)c3c(N(C)CCO)nccc32)C1 [Example 123, 1-[(R)-1-(2-Fluoro-6-methyl-phenyl)-pyrrolidin-3-yl]-4-[(2-hydroxy-ethyl)-methyl-amino]-3-(2-trifluoromethyl-benzyl)-1,3-dihydro-imidazo[4,5-c]pyridin-2-one] | 7.38
14 | CCN(CCO)Cc1cccc(F)c1N1CC[C@@H](n2c(=O)n(Cc3ccccc3C(F)(F)F)c3c(OC)cccc32)C1 [Example 140, 1-[(R)-1-(2-{[Ethyl-(2-hydroxy-ethyl)-amino]-methyl}-6-fluoro-phenyl)-pyrrolidin-3-yl]-4-methoxy-3-(2-trifluoromethyl-benzyl)-1,3-dihydro-benzoimidazol-2-one] | 5.99
15 | Cc1cccc(F)c1N1CC[C@@H](n2c(=O)n(Cc3ccccc3C(F)(F)F)c3c(N4CCN(C)CC4)nccc32)C1 [Example 206, 1-[(R)-1-(2-Fluoro-6-methyl-phenyl)-pyrrolidin-3-yl]-4-(4-methyl-piperazin-1-yl)-3-(2-trifluoromethyl-benzyl)-1,3-dihydro-imidazo[4,5-c]pyridin-2-one] | 5.64
16 | COc1cc(C)nc2c1n(Cc1ccccc1C(F)(F)F)c(=O)n2[C@@H]1CCN(c2c(C)cccc2F)C1 [Example 171, 3-[(R)-1-(2-Fluoro-6-methyl-phenyl)-pyrrolidin-3-yl]-7-methoxy-5-methyl-1-(2-trifluoromethyl-benzyl)-1,3-dihydro-imidazo[4,5-b]pyridin-2-one] | 7.19
17 | COc1ncnc(OC)c1N1CCC(n2c(=O)n(Cc3ccccc3C(F)(F)F)c3c(OC)cccc32)CC1 [Example 250, 1-[1-(4,6-Dimethoxy-pyrimidin-5-yl)-piperidin-4-yl]-4-methoxy-3-(2-trifluoromethyl-benzyl)-1,3-dihydro-benzoimidazol-2-one] | 6.07
18 | COc1ncnc2c1n(Cc1ccccc1C(F)(F)F)c(=O)n2[C@@H]1CCN(c2c(F)cccc2C#N)C1 [Example 104, 3-Fluoro-2-{(R)-3-[6-methoxy-8-oxo-7-(2-trifluoromethyl-benzyl)-7,8-dihydro-purin-9-yl]-pyrrolidin-1-yl}-benzonitrile] | 6.06
19 | COc1cccc2c1n(Cc1ccccc1C(F)(F)F)c(=O)n2[C@@H]1CCN(c2nnc(C(F)(F)F)o2)C1 [Example 84, 4-Methoxy-3-(2-trifluoromethyl-benzyl)-1-[(R)-1-(5-trifluoromethyl-[1,3,4]oxadiazol-2-yl)-pyrrolidin-3-yl]-1,3-dihydro-benzoimidazol-2-one] | 5.69

Now from value to compound:

Row | pIC50 | Structure (SMILES)
20 | 6.17 | CNCc1cccc(F)c1N1CC[C@@H](n2c(=O)n(Cc3ccccc3C(F)(F)F)c3c(OC)cccc32)C1 [Example 103, 1-[(R)-1-(2-Fluoro-6-methylaminomethyl-phenyl)-pyrrolidin-3-yl]-4-methoxy-3-(2-trifluoromethyl-benzyl)-1,3-dihydro-benzoimidazol-2-one]
21 | 5.46 | COc1cccc2c1n(Cc1ccccc1C(F)(F)F)c(=O)n2[C@@H]1CCN(C)C1 [Example 31, 4-Methoxy-1-((R)-1-methyl-pyrrolidin-3-yl)-3-(2-trifluoromethyl-benzyl)-1,3-dihydro-benzoimidazol-2-one]
22 | 6.17 | COc1cccc2c1n(Cc1ccccc1C(F)(F)F)c(=O)n2[C@@H]1CCN(c2c(Cl)cnnc2Cl)C1 [Example 158, 1-[(R)-1-(3,5-Dichloro-pyridazin-4-yl)-pyrrolidin-3-yl]-4-methoxy-3-(2-trifluoromethyl-benzyl)-1,3-dihydro-benzoimidazol-2-one]
23 | 6.35 | COc1cccc2c1n(Cc1ccccc1C(F)(F)F)c(=O)n2[C@@H]1CCN(c2c(C)cncc2C)C1 [Example 36, 1-[(R)-1-(3,5-Dimethyl-pyridin-4-yl)-pyrrolidin-3-yl]-4-methoxy-3-(2-trifluoromethyl-benzyl)-1,3-dihydro-benzoimidazol-2-one]
24 | 7.68 | COc1cccc2c1n(Cc1ccccc1C(F)(F)F)c(=O)n2[C@@H]1CCN(c2c(F)cccc2Br)C1 [Example 156, 1-[(R)-1-(2-Bromo-6-fluoro-phenyl)-pyrrolidin-3-yl]-4-methoxy-3-(2-trifluoromethyl-benzyl)-1,3-dihydro-benzoimidazol-2-one]
25 | 7.89 | Cc1cccc(C)c1N1CC[C@@H](n2c(=O)n(Cc3ccccc3C(F)(F)F)c3c(O)cccc32)C1 [Example 44, 1-[(R)-1-(2,6-Dimethyl-phenyl)-pyrrolidin-3-yl]-4-hydroxy-3-(2-trifluoromethyl-benzyl)-1,3-dihydro-benzoimidazol-2-one]
26 | 7.82 | COc1cccc2c1n(Cc1ccccc1C(F)(F)F)c(=O)n2[C@@H]1CCN(c2c(N)cccc2F)C1 [Example 155, 1-[(R)-1-(2-Amino-6-fluoro-phenyl)-pyrrolidin-3-yl]-4-methoxy-3-(2-trifluoromethyl-benzyl)-1,3-dihydro-benzoimidazol-2-one]
27 | 6.64 | COc1cccc2c1n(Cc1ccccc1C(F)(F)F)c(=O)n2C1CCN(c2c(F)ccnc2C)CC1 [Example 244, 1-(4′-Fluoro-2′-methyl-3,4,5,6-tetrahydro-2H-[1,3′]bipyridinyl-4-yl)-4-methoxy-3-(2-trifluoromethyl-benzyl)-1,3-dihydro-benzoimidazol-2-one]

From US11739070B2, “C5A receptor modulators” (IDORSIA PHARMACEUTICALS LTD, priority 2018, dated 2023)
